We go through eleven compounds from patent US6969702B2, “Compounds and methods for increasing neurogenesis” (priority 2002, dated 2005).

Read-outs that look alike come from different tables or passages of the source. Marks after values point to notes of the source that are not given here. Bridge positions count the residues as written; N and C are the ends. Square brackets hold non-standard residues; d marks the D form. Ends that are not written are not given here. Peptide text beside a SMILES is read from it. pGlu = O=C1CC[C@@H](C(=O)O)N1

Data set [1] relates to mouse adult neural stem cells. Briefly: ATP-assay: proliferation (ATP levels) of neurosphere-derived cells. As to conditions: for Fold Induction ATP: vs vehicle.
The next data set concerns Adult neural stem cells. Briefly: Flow cytometry for early neuronal marker Doublecortin. The following applies: Table 6, 100 nM; for % Doublecortin-positive cells: 4 days; for Fold Induction (Doublecortin-positive cells): vs EGF/FGF. (A flow cytometer gives signals particle by particle.)
The test system of data set [2] is NFAT-Luciferace reporter (Ca^2+). The following applies: Table 4; for NFAT Luciferace units: 24 hours after induction; for Fold Induction NFAT: vs vehicle.
For data set [3], the system named is cAMP activation in mouse adult neural stem cells. Briefly: cAMP detection (HitHunter EFC Cyclic AMP Chemiluminescence Assay). The following applies: Table 2; for Fold Induction cAMP: vs vehicle.
The mark [4] stands for this setting: Table 4, concentration not given.

Consider `CC[C@H](C)[C@H](NC(=O)[C@H](Cc1ccc(O)cc1)NC(=O)[C@@H](NC(=O)[C@H](CCCNC(=N)N)NC(=O)[C@@H](N)CC(=O)O)C(C)C)C(=O)N[C@@H](Cc1cnc[nH]1)C(=O)N1CCC[C@H]1C(=O)N[C@@H](Cc1ccccc1)C(=O)O` [Angiotensin II (human synthetic)], for which, in data set [1] (setting [4]), the “ATP (nM ATP/well)” value was 11.7 ± 0.6 nM ATP/well and the “Fold Induction ATP” value is reported as 1.2* fold. In the data set with Adult neural stem cells, the “% Doublecortin-positive cells” value is listed as 3.1% and the “Fold Induction (Doublecortin-positive cells)” value worked out at 1.2 fold. Also, in data set [2] (concentration not given), the “NFAT Luciferace units” value was found to be 12.0 ± 3.7 Luciferace units and the “Fold Induction NFAT” value was 2.1* fold.

As for `CC(C)C[C@H](NC(=O)CNC(=O)[C@H](C)NC(=O)[C@H](CC(C)C)NC(=O)[C@H](CCCNC(=N)N)NC(=O)[C@H](Cc1cnc[nH]1)NC(=O)[C@@H](NC(=O)[C@@H](N)C(C)C)[C@@H](C)O)C(=O)N[C@@H](CC(C)C)C(=O)N[C@@H](CO)C(=O)N[C@@H](CCCNC(=N)N)C(=O)N[C@@H](CO)C(=O)NCC(=O)NCC(=O)N[C@H](C(=O)N[C@H](C(=O)N[C@@H](CCCCN)C(=O)N[C@@H](CC(N)=O)C(=O)N[C@@H](CC(N)=O)C(=O)N[C@@H](Cc1ccccc1)C(=O)N[C@H](C(=O)N1CCC[C@H]1C(=O)N[C@H](C(=O)N[C@@H](CC(N)=O)C(=O)N[C@H](C(=O)NCC(=O)N[C@@H](CO)C(=O)N[C@@H](CCCCN)C(=O)N[C@@H](C)C(=O)N[C@@H](Cc1ccccc1)C(N)=O)C(C)C)[C@@H](C)O)C(C)C)C(C)C)C(C)C` [CGRP (8-37)], in data set [1] (Table 4, 100 nM), the “Fold Induction ATP” value is 1.2** fold. Moreover, the “Fold Induction NFAT” value in data set [2] (15 nM) is listed as 1.3** fold.

On to `CC[C@H](C)[C@H](NC(=O)[C@H](C)NC(=O)[C@H](CC(=O)O)NC(=O)[C@H](C)NC(=O)[C@@H](N)Cc1ccc(O)cc1)C(=O)N[C@@H](Cc1ccccc1)C(=O)N[C@H](C(=O)N[C@@H](CC(N)=O)C(=O)N[C@@H](CO)C(=O)N[C@@H](Cc1ccc(O)cc1)C(=O)N[C@@H](CCCNC(=N)N)C(=O)N[C@@H](CCCCN)C(=O)N[C@H](C(=O)N[C@@H](CC(C)C)C(=O)NCC(=O)N[C@@H](CCC(N)=O)C(=O)N[C@@H](CC(C)C)C(=O)N[C@@H](CO)C(=O)N[C@@H](C)C(=O)N[C@@H](CCCNC(=N)N)C(=O)N[C@@H](CCCCN)C(=O)N[C@@H](CC(C)C)C(=O)N[C@@H](CC(C)C)C(=O)N[C@@H](CCC(N)=O)C(=O)N[C@@H](CC(=O)O)C(=O)N[C@H](C(=O)N[C@@H](CCSC)C(=O)N[C@@H](CO)C(=O)N[C@@H](CCCNC(=N)N)C(=O)N[C@@H](CCC(N)=O)C(=O)N[C@@H](CCC(N)=O)C(=O)NCC(=O)N[C@@H](CCC(=O)O)C(=O)N[C@@H](CO)C(=O)N[C@@H](CC(N)=O)C(=O)N[C@@H](CCC(N)=O)C(=O)N[C@@H](CCC(=O)O)C(=O)N[C@@H](CCCNC(=N)N)C(=O)NCC(=O)N[C@@H](C)C(=O)N[C@@H](CCCNC(=N)N)C(=O)N[C@@H](C)C(=O)N[C@@H](CCCNC(=N)N)C(=O)N[C@@H](CC(C)C)C(N)=O)[C@@H](C)CC)C(C)C)[C@@H](C)O` [Growth Hormone Releasing Factor], for which, in data set [1] (Table 4, 10 nM), the “ATP (nM ATP/well)” value was 12.6 ± 0.9 nM ATP/well. Also, the “NFAT Luciferace units” value in data set [2] (15 nM) worked out at 4.5 ± 0.6 Luciferace units.

As for `CC[C@H](C)[C@H](NC(=O)[C@@H](NC(=O)[C@H](CC(=O)O)NC(=O)[C@H](CCC(N)=O)NC(=O)[C@H](Cc1c[nH]cn1)NC(=O)[C@@H]1CSSC[C@H](N)C(=O)N[C@@H](CO)C(=O)N[C@H]2CSSC[C@H](NC(=O)[C@H](CCC(=O)O)NC(=O)[C@H](CCCCN)NC(=O)[C@H](CC(=O)O)NC(=O)[C@H]([C@@H](C)O)NC(=O)[C@H](CCSC)NC(=O)[C@H](CC(=O)O)NC(=O)[C@H](CCCCN)NC2=O)C(=O)N[C@@H](CC(C)C)C(=O)N[C@@H](Cc2ccc(O)cc2)C(=O)N[C@@H](Cc2ccccc2)C(=O)N1)C(C)C)C(=O)N[C@@H](Cc1c[nH]c2ccccc12)C(=O)O` [Sarafotoxin S6b] (H-CSCKDMTDKECLYFCHQDVIW-OH; disulfide 1-15, 3-11 (inferred); N-terminus and C-terminus assumed), in data set [3] (100 nM (cAMP concentration)), the “cAMP (pmol/well)” value is listed as 0.43 ± 0.22 pmol/well. The “ATP (nM ATP/well)” value is 43.0 ± 7.8 nM ATP/well in data set [1] (Table 2, 100 nM, 4 days) and 43.0 ± 7.8 nM ATP/well in data set [1] (Table 4, 100 nM). Besides, the “NFAT Luciferace units” value in data set [2] (100 nM) was determined as 13.4 ± 7.0 Luciferace units.

Regarding `CC[C@H](C)[C@H](NC(=O)[C@@H](NC(=O)[C@H](CC(=O)O)NC(=O)[C@H](CCC(N)=O)NC(=O)[C@H](Cc1c[nH]cn1)NC(=O)[C@@H]1CSSC[C@H](N)C(=O)N[C@@H]([C@@H](C)O)C(=O)N[C@H]2CSSC[C@H](NC(=O)[C@H](CCC(=O)O)NC(=O)[C@H](CCC(=O)O)NC(=O)[C@H](CC(=O)O)NC(=O)[C@H]([C@@H](C)O)NC(=O)[C@H](CCSC)NC(=O)[C@H](CC(=O)O)NC(=O)[C@H](CC(N)=O)NC2=O)C(=O)N[C@@H](CC(C)C)C(=O)N[C@@H](CC(N)=O)C(=O)N[C@@H](Cc2ccccc2)C(=O)N1)C(C)C)C(=O)N[C@@H](Cc1c[nH]c2ccccc12)C(=O)O` [Sarafotoxin S6c], in data set [3] (10 nM (cAMP concentration)), the “cAMP (pmol/well)” value worked out at 0.21 ± 0.03 pmol/well. Moreover, the “ATP (nM ATP/well)” value is 39.9 ± 6.6 nM ATP/well in data set [1] (Table 2, 10 nM, 4 days) and 41.6 ± 4.8 nM ATP/well in data set [1] (Table 4, 1 nM). The “NFAT Luciferace units” value in data set [2] (1 nM) is 8.3 ± 2.0 Luciferace units.

With `CSCC[C@H](NC(=O)[C@H](CC(C)C)NC(=O)[C@@H]1CCCN1C(=O)[C@H](Cc1ccccc1)NC(=O)[C@H](Cc1ccccc1)NC(=O)[C@@H]1CCC(=O)N1)C(N)=O` [Septide] ([pGlu]FFPLM-NH2; C-terminus assumed), the “ATP (nM ATP/well)” value in data set [1] (Table 4, 100 nM) stood at 25.1 ± 3.1 nM ATP/well. Further, the “NFAT Luciferace units” value in data set [2] (100 nM) was determined as 3.7 ± 0.9 Luciferace units.

For `CSCC[C@H](NC(=O)[C@H](C)NC(=O)[C@@H]1CCCN1C(=O)[C@H](CC(N)=O)NC(=O)[C@H](CO)NC(=O)[C@H](CC(N)=O)NC(=O)[C@H](C)NC(=O)[C@@H](N)CO)C(=O)N[C@@H](C)C(=O)N1CCC[C@H]1C(=O)N[C@@H](CCCNC(=N)N)C(=O)N[C@@H](CCC(=O)O)C(=O)N[C@@H](CCCNC(=N)N)C(=O)N[C@@H](CCCCN)C(=O)N[C@@H](C)C(=O)NCC(=O)N[C@H]1CSSC[C@@H](C(=O)O)NC(=O)[C@H](CO)NC(=O)[C@H]([C@@H](C)O)NC(=O)[C@H](Cc2ccccc2)NC(=O)[C@H]([C@@H](C)O)NC(=O)[C@H](CCCCN)NC(=O)[C@H](Cc2c[nH]c3ccccc23)NC(=O)[C@H](Cc2ccccc2)NC(=O)[C@H](Cc2ccccc2)NC(=O)[C@H](CC(N)=O)NC(=O)[C@H](CCCCN)NC1=O` [Somatostatin-28], in data set [1] (Table 4, 10 nM), the “ATP (nM ATP/well)” value is given as 17.1 ± 1.5 nM ATP/well and the “Fold Induction ATP” value is on record as 1.2* fold. In data set [2] (100 nM), the “NFAT Luciferace units” value is given as 3.0 ± 0.4 Luciferace units and the “Fold Induction NFAT” value is 1.6* fold.

For the compound `CC(C)C[C@H](NC(=O)[C@H](Cc1ccccc1)NC(=O)CNC(=O)CNC(=O)[C@@H](N)Cc1ccc(O)cc1)C(=O)N[C@@H](CCCNC(=N)N)C(=O)N[C@@H](CCCCN)C(=O)N[C@@H](Cc1ccc(O)cc1)C(=O)N1CCC[C@H]1C(=O)N[C@@H](CCCCN)C(=O)O` [α-Neo-Endorphin] (H-YGGFLRKYPK-OH; N-terminus and C-terminus assumed), the “cAMP (pmol/well)” value in data set [3] (1 nM (cAMP concentration)) is reported as 0.36 ± 0.09 pmol/well. The “Fold Induction cAMP” value in data set [3] (1 nM) is listed as 1.7* (1 nM) fold. Also, in data set [1] (Table 2, 100 nM, 4 days), the “ATP (nM ATP/well)” value came out at 13.8 ± 2.1 nM ATP/well and the “Fold Induction ATP” value is given as 1.8** fold. Further, in the data set on Adult neural stem cells, the “% Doublecortin-positive cells” value is 4.0% and the “Fold Induction (Doublecortin-positive cells)” value worked out at 1.6 fold.

Take `CSCC[C@H](NC(=O)[C@H](CC(C)C)NC(=O)CNC(=O)[C@@H](NC(=O)[C@H](Cc1ccccc1)NC(=O)[C@H](CO)NC(=O)[C@H](CC(=O)O)NC(=O)[C@@H](NC(=O)[C@H](CCCCN)NC(=O)[C@@H](N)Cc1c[nH]cn1)[C@@H](C)O)C(C)C)C(N)=O` [α-Neurokinin]: in data set [3] (10 nM (cAMP concentration)), the “cAMP (pmol/well)” value turned out to be 0.11 ± 0.03 pmol/well. The “ATP (nM ATP/well)” value in data set [1] (Table 2, 100 nM, 4 days) is 11.0 ± 1.4 nM ATP/well. The “% Doublecortin-positive cells” value with Adult neural stem cells is recorded as 4.6%.

On to `CSCC[C@H](NC(=O)[C@H](CCCNC(=N)N)NC(=O)[C@H](Cc1ccc(O)cc1)NC(=O)[C@@H]1CCCN1C(=O)CNC(=O)[C@H](CCC(=O)O)NC(=O)[C@H](CC(=O)O)NC(=O)[C@H](CCCCN)NC(=O)[C@H](CCCCN)NC(=O)[C@H](CCC(=O)O)NC(=O)[C@H](C)N)C(=O)N[C@@H](CCC(=O)O)C(=O)N[C@@H](Cc1c[nH]cn1)C(=O)N[C@@H](Cc1ccccc1)C(=O)N[C@@H](CCCNC(=N)N)C(=O)N[C@@H](Cc1c[nH]c2ccccc12)C(=O)NCC(=O)N[C@@H](CO)C(=O)N1CCC[C@H]1C(=O)N1CCC[C@H]1C(=O)N[C@@H](CCCCN)C(=O)N[C@@H](CC(=O)O)C(=O)O` [β-MSH, β-Melanocyte Stimulating Hormone], for which, in data set [3] (10 nM (cAMP concentration)), the “cAMP (pmol/well)” value turned out to be 0.23 ± 0.02 pmol/well. The “ATP (nM ATP/well)” value in data set [1] (Table 2, 100 nM, 4 days) amounted to 13.6 ± 1.6 nM ATP/well. The “% Doublecortin-positive cells” value with Adult neural stem cells is on record as 4.1%.

For “KYGQVPMCDAGEQCAVRKGARIGKLCDCPRGTSCNSFLLKCL (disulfide 8-26, 14-34, 28-41) [CART (61-102)]”, in data set [3] (10 nM (cAMP concentration)), the “cAMP (pmol/well)” value was 0.13 ± 0.02 pmol/well. Moreover, in data set [3] (10 nM), the “Fold Induction cAMP” value is 1.2* (10 nM) fold. Also, in data set [1] (Table 2, 100 nM, 4 days), the “ATP (nM ATP/well)” value amounted to 8.3 ± 0.4 nM ATP/well and the “Fold Induction ATP” value was 1.2** fold. In the data set with Adult neural stem cells, the “% Doublecortin-positive cells” value is 4.7% and the “Fold Induction (Doublecortin-positive cells)” value turned out to be 1.8 fold.
